# Measurements: patent publication US8183239B2, “Substituted piperazines and piperidines as modulators of the neuropeptide Y2 receptor” (Janssen Pharmaceutica NV, priority 2005, dated 2012)
# pIC50: −log10 of the molar value.
# Target: T1, Y2 receptors (Homo sapiens, UniProt P49146)
# T1 construct: endogenous in cells; host or cells: KAN-Ts cells (membranes)
# T1 sequence (P49146 1-381): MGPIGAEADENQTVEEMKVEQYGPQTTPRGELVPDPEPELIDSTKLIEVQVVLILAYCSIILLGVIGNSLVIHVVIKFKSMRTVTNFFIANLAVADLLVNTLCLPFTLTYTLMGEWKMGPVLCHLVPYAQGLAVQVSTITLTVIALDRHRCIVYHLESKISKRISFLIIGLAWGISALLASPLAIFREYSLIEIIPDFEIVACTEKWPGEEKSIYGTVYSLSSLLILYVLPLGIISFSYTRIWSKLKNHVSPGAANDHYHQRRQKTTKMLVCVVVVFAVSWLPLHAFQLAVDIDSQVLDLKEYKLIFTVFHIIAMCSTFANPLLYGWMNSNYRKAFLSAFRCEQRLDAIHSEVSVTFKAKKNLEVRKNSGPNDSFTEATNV
# Assay: Radioligand binding assay ([125I]PYY, KAN-Ts cell membranes)
# Conditions: Table 1, [125I]PYY 80 pM, average of results, read-out: IC50
# Summary of the method: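 IC50 values are means of three to eight experiments run in duplicate, fitted sigmoidally against specific binding (defined by […]). Competition used 80 pM [^125I]PYY for 1 h at room temperature on KAN-Ts membranes carrying native Y2, with filtration and scintillation counting.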
row,pIC50,Compound
1,5.15,"COC(=O)C(c1ccccc1)N1CCN(c2ccc(NC(=O)c3ccc[nH]3)cc2)CC1 (stereo not drawn) [Example 104, Phenyl-(4-{4-[(1H-pyrrole-2-carbonyl)-amino]-phenyl}-piperazin-1-yl)-acetic acid methyl ester]"
2,4.92,"COC(=O)C(c1ccccc1)N1CCN(c2ccc(NC(=O)c3ccccn3)cc2)CC1 (stereo not drawn) [Example 106, Phenyl-(4-{4-[(pyridine-2-carbonyl)-amino]-phenyl}-piperazin-1-yl)-acetic acid methyl ester]"
3,4.59,"COC(=O)C(c1ccccc1)N1CCN(c2ccc(NC(=O)c3cncnc3)cc2)CC1 (stereo not drawn) [Example 108, Phenyl-(4-{4-[(pyrimidine-5-carbonyl)-amino]-phenyl}-piperazin-1-yl)-acetic acid methyl ester]"
4,5.21,"COC(=O)C(c1ccccc1)N1CCN(c2ccc(NC(=O)CC(C)C)cc2)CC1 (stereo not drawn) [Example 109, {4-[4-(3-Methyl-butyrylamino)-phenyl]-piperazin-1-yl}-phenyl-acetic acid methyl ester]"
5,5.62,"COC(=O)C(c1ccccc1)N1CCN(c2ccc(NC(=O)c3ccccc3Br)cc2)CC1 (stereo not drawn) [Example 110, {4-[4-(2-Bromo-benzoylamino)-phenyl]-piperazin-1-yl}-phenyl-acetic acid methyl ester]"
6,6.47,"CCN(CC)C(=O)C(c1ccccc1)N1CCN(c2ccc(NC(=O)c3ccccc3Br)cc2F)CC1 (stereo not drawn) [Example 111, 2-Bromo-N-{4-[4-(diethylcarbamoyl-phenyl-methyl)-piperazin-1-yl]-3-fluoro-phenyl}-benzamide]"
7,6.35,"CCC(CC)C(=O)N(C)c1ccc(N2CCN(C(C(=O)N(CC)CC)c3ccccc3)CC2)c(F)c1 (stereo not drawn) [Example 112, N-{4-[4-(Diethylcarbamoyl-phenyl-methyl)-piperazin-1-yl]-3-fluoro-phenyl}-2-ethyl-N-methyl-butyramide]"
8,5.24,"CCNC(=O)C(c1ccccc1)N1CCN(c2ccc(C(=O)NC(CC)CC)cc2F)CC1 (stereo not drawn) [Example 113, 4-[4-(Ethylcarbamoyl-phenyl-methyl)-piperazin-1-yl]-N-(1-ethyl-propyl)-3-fluoro-benzamide]"
9,5.00,"COC(=O)C(c1ccccc1)N1CCN(c2ccc(C(=O)Nc3ccccc3)cc2)CC1 (stereo not drawn) [Example 114, Phenyl-[4-(4-phenylcarbamoyl-phenyl)-piperazin-1-yl]-acetic acid methyl ester]"
10,5.49,"CCC(CC)NC(=O)c1ccc(N2CCN(C(C(=O)OC)c3ccccc3)CC2)c(F)c1 (stereo not drawn) [Example 115, {4-[4-(1-Ethyl-propylcarbamoyl)-2-fluoro-phenyl]-piperazin-1-yl}-phenyl-acetic acid methyl ester]"
11,5.00,"CCC(CC)NC(=O)c1ccc(N2CCN(C(C(=O)OC)c3ccccc3)CC2)cc1 (stereo not drawn) [Example 116, {4-[4-(1-Ethyl-propylcarbamoyl)-phenyl]-piperazin-1-yl}-phenyl-acetic acid methyl ester]"
12,5.00,"CCNC(=O)C(c1ccccc1)C1CCN(c2ccc(C(=O)NC(CC)CC)cc2F)CC1 (stereo not drawn) [Example 117, 4-[4-(Ethylcarbamoyl-phenyl-methyl)-piperidin-1-yl]-N-(1-ethyl-propyl)-3-fluoro-benzamide]"
13,5.47,"CC(=O)N(c1ccccc1)c1ccc(N2CCN(C(C(=O)Nc3ccc4c(c3)CCC4)c3ccccc3)CC2)cc1 (stereo not drawn) [Example 118, 2-{4-[4-(Acetyl-phenyl-amino)-phenyl]-piperazin-1-yl}-N-indan-5-yl-2-phenyl-acetamide]"
14,5.62,"CCC(C)C(=O)Nc1ccc(N2CCC(C(C(=O)OC)c3ccccc3)CC2)cc1 (stereo not drawn) [Example 120, {1-[4-(2-Methyl-butyrylamino)-phenyl]-piperidin-4-yl}-phenyl-acetic acid methyl ester]"
15,8.10,"CCN(CC)C(=O)C(c1ccccc1)N1CCN(c2ccc(NC(=O)[C@H]3CCOC3)cc2C#N)CC1 (stereo partly drawn) [Example 122, (S)-Tetrahydro-furan-3-carboxylic acid {3-cyano-4-[4-(diethylcarbamoyl-phenyl-methyl)-piperazin-1-yl]-phenyl}-amide]"
16,7.77,"CCN(CC)C(=O)C(c1ccccc1)N1CCN(c2ccc(NC(=O)[C@@H]3CCOC3)cc2C#N)CC1 (stereo partly drawn) [Example 123, (R)-Tetrahydro-furan-3-carboxylic acid {3-cyano-4-[4-(diethylcarbamoyl-phenyl-methyl)-piperazin-1-yl]-phenyl}-amide]"
17,7.82,"CCC(CC)C(=O)Nc1ccc(N2CCN(C(C(=O)N(CC)CC)c3cc(Br)ccc3F)CC2)c(F)c1 (stereo not drawn) [Example 124, N-(4-{4-[(5-Bromo-2-fluoro-phenyl)-diethylcarbamoyl-methyl]-piperazin-1-yl}-3-fluoro-phenyl)-2-ethyl-butyramide]"
18,7.60,"CCN(CC)C(=O)C(c1ccccc1)C1CCN(c2ccc(NC(=O)[C@H]3CCOC3)cc2F)CC1 (stereo partly drawn) [Example 126, (S)-Tetrahydro-furan-3-carboxylic acid {4-[4-(diethylcarbamoyl-phenyl-methyl)-piperidin-1-yl]-3-fluoro-phenyl}-amide]"
19,7.70,"CCOC(=O)C(c1ccccc1)N1CCN(c2ccc(NC(=O)C(CC)CC)cc2F)CC1 (stereo not drawn) [Example 127, {4-[4-(2-Ethyl-butyrylamino)-2-fluoro-phenyl]-piperazin-1-yl}-phenyl-acetic acid ethyl ester]"
20,7.46,"CCN(CC)C(=O)C(c1ccccc1)N1CCN(c2ccc(NC(=O)c3ccnn3CC)cc2F)CC1 (stereo not drawn) [Example 128, 2-Ethyl-2H-pyrazole-3-carboxylic acid {4-[4-(diethylcarbamoyl-phenyl-methyl)-piperazin-1-yl]-3-fluoro-phenyl}-amide]"
21,7.40,"CCNC(=O)C(c1ccccc1)C1CCN(c2ccc(NC(=O)C3CCCC3)cc2C#N)CC1 (stereo not drawn) [Example 130, Cyclopentanecarboxylic acid {3-cyano-4-[4-(ethylcarbamoyl-phenyl-methyl)-piperidin-1-yl]-phenyl}-amide]"
22,7.30,"CCN(CC)C(=O)C(c1ccccc1)C1CCN(c2ccc(NC(=O)c3cccnc3C)cc2F)CC1 (stereo not drawn) [Example 131, N-{4-[4-(Diethylcarbamoyl-phenyl-methyl)-piperidin-1-yl]-3-fluoro-phenyl}-2-methyl-nicotinamide]"
23,7.26,"CCN(CC)C(=O)C(c1ccccc1)C1CCN(c2ccc(NC(=O)[C@@H]3CCOC3)cc2F)CC1 (stereo partly drawn) [Example 132, (R)-Tetrahydro-furan-3-carboxylic acid {4-[4-(diethylcarbamoyl-phenyl-methyl)-piperidin-1-yl]-3-fluoro-phenyl}-amide]"
24,7.22,"CCNC(=O)C(c1ccccc1)C1CCN(c2ccc(NC(=O)[C@H]3CCOC3)cc2C#N)CC1 (stereo partly drawn) [Example 133, (S)-Tetrahydro-furan-3-carboxylic acid {3-cyano-4-[4-(ethylcarbamoyl-phenyl-methyl)-piperidin-1-yl]-phenyl}-amide]"
25,7.10,"CCN(CC)C(=O)C(c1ccccc1)C1CCN(c2ccc(NC(=O)Cc3cscc3C)cc2F)CC1 (stereo not drawn) [Example 134, N,N-Diethyl-2-(1-{2-fluoro-4-[2-(4-methyl-thiophen-3-yl)-acetylamino]-phenyl}-piperidin-4-yl)-2-phenyl-acetamide]"
26,7.22,"CCN(CC)C(=O)C(c1ccccc1)N1CCN(c2ccc(NC(=O)C3CCC3)cc2F)CC1 (stereo not drawn) [Example 135, Cyclobutanecarboxylic acid {4-[4-(diethylcarbamoyl-phenyl-methyl)-piperazin-1-yl]-3-fluoro-phenyl}-amide]"
27,7.15,"CCC(CC)C(=O)Nc1ccc(N2CCC(=C(C(=O)N(CC)CC)c3cccc(F)c3)CC2)c(F)c1 [Example 138, N-(4-{4-[Diethylcarbamoyl-(3-fluoro-phenyl)-methylene]-piperidin-1-yl}-3-fluoro-phenyl)-2-ethyl-butyramide]"
28,7.10,"CCN(CC)C(=O)C(c1ccccc1)C1CCN(c2ccc(NC(=O)C(C)C)cc2F)CC1 (stereo not drawn) [Example 140, N-{4-[4-(Diethylcarbamoyl-phenyl-methyl)-piperidin-1-yl]-3-fluoro-phenyl}-isobutyramide]"

row,Compound,pIC50
1,"CCN(CC)C(=O)C(c1ccccc1)N1CCN(c2ccc(NC(=O)C3(c4ccccc4)CCCC3)cc2F)CC1 (stereo not drawn) [Example 125, 1-Phenyl-cyclopentanecarboxylic acid {4-[4-(diethylcarbamoyl-phenyl-methyl)-piperazin-1-yl]-3-fluoro-phenyl}-amide]",7.70
2,"CCC(CC)C(=O)Nc1ccc(N2CCN(C(C(=O)N(CC)CC)c3cccc(OC)c3)CC2)c(F)c1 (stereo not drawn) [Example 129, N-(4-{4-[Diethylcarbamoyl-(3-methoxy-phenyl)-methyl]-piperazin-1-yl}-3-fluoro-phenyl)-2-ethyl-butyramide]",7.40
3,"CCN(CC)C(=O)C(c1ccccc1)N1CCN(c2ccc(NC(=O)C3(C)CCCCC3)cc2F)CC1 (stereo not drawn) [Example 136, 1-Methyl-cyclohexanecarboxylic acid {4-[4-(diethylcarbamoyl-phenyl-methyl)-piperazin-1-yl]-3-fluoro-phenyl}-amide]",7.15
4,"CC[C@H](C)C(=O)Nc1ccc(N2CCN(C(C(=O)N(CC)CC)c3ccccc3)CC2)c(F)c1 (stereo partly drawn) [Example 137, (S)—N-{4-[4-(Diethylcarbamoyl-phenyl-methyl)-piperazin-1-yl]-3-fluoro-phenyl}-2-methyl-butyramide]",7.15
5,"CCN(CC)C(=O)C(c1ccccc1)N1CCN(c2ccc(NC(=O)C(C)(C)c3ccc(Cl)cc3)cc2F)CC1 (stereo not drawn) [Example 139, 2-(4-Chloro-phenyl)-N-{4-[4-(diethylcarbamoyl-phenyl-methyl)-piperazin-1-yl]-3-fluoro-phenyl}-isobutyramide]",7.14
